The values that follow come from US20230181611A1, “REELIN/VEGF-C PRODUCTION/ACTIVATION PROMOTER AND SKIN EXTERNAL COMPOSITION USING THE SAME” (AMOREPACIFIC CORPORATION, priority 2021, published 2023).

For data set [1], the system named is Human dermal lymphatic endothelial cells (HDLEC). The data set is described as follows: Cytotoxicity analysis (WST-8 cell viability). Format: cell-based. As to conditions: 0 to 200 ppm (μg/ml), 24 hours and 72 hours, FIG. 1. Here is the method:
Human dermal lymphatic endothelial cells (HDLEC, PromoCell, Germany) were newly cultured in 96 well dishes for one day and then treated with a compound represented by Chemical Formula E-1 (Biogenics Company) at each concentration of 0 ppm (μg/ml) to 200 ppm (μg/ml). The cells were cultured for 24 hours and 72 hours, and then measured with respect to absorbance at 450 nm by using a QuantiMax WST-8 Cell viability assay kit to check cell viability, and the results are shown in FIG. 1.
On the technique in general: Formazan colour is commonly taken as a measure of viable cells.

The subject of another data set is VEGF-C. Description: VEGF-C cytokine analysis (ELISA). As to conditions: HDLEC, 1 ppm and 10 ppm, 48 hours, DMSO control = 100%, FIG. 3. It is filed as cell-based, human. The protocol: After culturing human dermal lymphatic endothelial cells in 6 well plates for 24 hours, while the cells treated with DMSO as a control (reference, 100%), the cells were treated with the compound represented by Chemical Formula E-1 at each concentration of 1 ppm and 10 ppm and cultured for 48 hours and then measured with respect to production and activity of VEGF-C through a VEGF-C cytokine analysis by using a VEGFC human ELISA Kit (ThermoFisher, U.S.A.) according to a manual, and the results are shown in FIG. 3.

A further data set relates to reelin. Description: Reelin cytokine analysis (ELISA). It is filed as cell-based, human. As to conditions: HDLEC, 10 ppm, 48 hours, DMSO control = 100%, FIG. 2. The protocol:
After culturing human dermal lymphatic endothelial cells in 6 well plates for 24 hours, while the cells treated with DMSO were used as a control (reference, 100%), the cells were treated with the compound represented by Chemical Formula E-1 at a concentration of 10 ppm and cultured for 48 hours and then measured with respect to production and activity of reelin through a reelin cytokine analysis by using human ELISA Kit (Mybiosource, U.S.A.) according to a manual, and the results are shown in FIG. 2.
In general terms: ELISA stands for enzyme-linked immunosorbent assay.

For the compound `CC1(C)[C@@H](O[C@H]2OC(C(=O)O)[C@@H](O)C(O)C2O[C@@H]2OC(C(=O)O)[C@@H](O)C(O)C2O)CC[C@]2(C)[C@H]3C(=O)C=C4[C@@H]5C[C@@](C)(C(=O)O)CC[C@]5(C)CC[C@@]4(C)[C@]3(C)CC[C@@H]12` (stereo partly drawn) [Chemical Formula E-1], the “cytotoxicity (cell viability)” value in data set [1] is given as “no cytotoxicity”. The “production and activity of VEGF-C compared with the control” value in the data set with VEGF-C is “further improve production and activity of VEGF-C”. Also, the “production and activity of reelin compared with the control” value in the data set on reelin is “further improve production and activity of reelin”.
